Data as given in PMC12169614, “Exploring Long Arm Amide-Linked Side Chains in the Design of Antifungal Azole Inhibitors of Sterol 14α-Demethylase (CYP51)” (Journal of Medicinal Chemistry, 2025).

Columns and labels:
Y2411 Endog. ScCYP51 = test: MIC80 determination, strain Y2411; assay type: cell-based, S. cerevisiae; settings: Saccharomyces cerevisiae
Method in brief: (§1)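 Seed at OD600 0.005 (1.5 × 10^4 CFU); shake at 200 rpm, 30 °C; stop at 48 h (S. cerevisiae) or 24 h (C. albicans); measure OD600 to derive MIC80.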

Y2300 OE ScCYP51 = test: MIC80 determination, strain Y2300; assay type: cell-based, S. cerevisiae; settings: Saccharomyces cerevisiae
Method in brief: as §1

Y2301 OE ScCYP51 Y140F = test: MIC80 determination, strain Y2301; assay type: cell-based, S. cerevisiae; settings: Saccharomyces cerevisiae
Method in brief: as §1

Y2513 OE ScCYP51 Y140H = test: MIC80 determination, strain Y2513; assay type: cell-based, S. cerevisiae; settings: Saccharomyces cerevisiae
Method in brief: as §1

Y2459 OE CaCYP51 CaCpr = test: MIC80 determination, strain Y2459; assay type: cell-based, S. cerevisiae
Method in brief: as §1

Y525 OE CaMDR1a = test: MIC80 determination, strain Y525; assay type: cell-based, S. cerevisiae
Method in brief: as §1

Y71 SC5314 = test: MIC80 determination, C. albicans clinical isolate Y71 SC5314; assay type: cell-based; settings: Candida albicans
Method in brief: as §1

Y611 FHB3 = test: MIC80 determination, C. albicans clinical isolate Y611 FHB3; assay type: cell-based; settings: Candida albicans, 24 h, pH 7
Method in brief: as §1

Y2374 OE CgCYP51 = test: MIC80 determination, strain Y2374; assay type: cell-based, S. cerevisiae; settings: Saccharomyces cerevisiae
Method in brief: as §1

Y2767 OE CauCYP51 = test: MIC80 determination, strain Y2767; assay type: cell-based, S. cerevisiae
Method: (§2) Cells were seeded at an OD600 nm of 0.005 (1.5 × 10^4 CFU), and the plates were incubated at 30 °C with shaking at 200 rpm for 48 h for S. cerevisiae strains and 24 h for C. albicans . Cell growth was assessed by measuring the OD600 nm using a Synergy 2 multimode plate reader (BioTek Instruments, VT, USA). Each MIC80 was determined using triplicate measurements for pools of 4 clones of each strain in three separate experiments.

Y2768 OE CauCYP51 Y132F = test: MIC80 determination, strain Y2768; assay type: cell-based, S. cerevisiae
Method: as §2

Y2765 OE CauMDR1 = test: MIC80 determination, strain Y2765; assay type: cell-based, S. cerevisiae; settings: Saccharomyces cerevisiae
Method: as §2

Y2649 OE CYP51 F1 RaCPR = test: MIC80 determination, strain Y2649; assay type: cell-based, S. cerevisiae
Method in brief: as §1

[1] = tested on: Y2746 OE AfCYP51A AfCPR AfERG6; test: MIC80 determination, strain Y2746; assay type: cell-based, S. cerevisiae; settings: Saccharomyces cerevisiae
Method in brief: as §1

[2] = tested on: Y2300 ScCYP51 overexpressed; test: Agarose (disk) diffusion assay, strain Y2300; assay type: cell-based, S. cerevisiae; settings: 10 nmol/disk, 30 °C, 48 h
Excerpt: (§3) Final compounds were screened as racemic mixtures using agarose diffusion assays to visualize their inhibitory activity against a panel of recombinant S. cerevisiae strains i.e., S. cerevisiae strains expressing control levels of wild-type CYP51 (ScCYP51), overexpressed wild-type ScCYP51, overexpressed azole-resistant ScCYP51 Y140F/H mutations and overexpressed C. albicans efflux pumps MDR1a or CDR1B (Figure and Table S1).
(§4) The susceptibilities of S. cerevisiae and Candida species strains to azole compounds were observed as zones of growth inhibition in agarose diffusion assays. The disk diffusion assays were carried out as described by Keniya et al. Complete supplement mixture (CSM) agarose (0.6% agarose [wt/vol]; 20 mL of synthetic defined medium (SD); pH 6.8–7) was solidified in a rectangular Petri dish which was overlaid with CSM agarose (0.6% [wt/vol]; 5 mL; pH 6.8–7) seeded with yeast cells at an optical density (OD600) of 0.008 (118,000 cells per 1 mL of overlay). Azole compounds (10 nmol/disk) were applied to sterile BBL paper disks (Becton Dickinson Co., Sparks, MD) and placed on solidified overlays. Cell growth was assessed after incubation at 30 °C for 48 h.

[3] = tested on: Y525 MFS efflux pump CaMDR1a overexpressed; test: Agarose (disk) diffusion assay, strain Y525; assay type: cell-based, S. cerevisiae; settings: 10 nmol/disk, 30 °C, 48 h
Method in brief: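 Recombinant S. cerevisiae strains seeded at OD600 0.008 in CSM agarose overlay (0.6%, pH 6.8–7) on SD agarose. Racemic compounds applied at 10 nmol/disk on paper disks. Growth-inhibition zones assessed after 48 h at 30 °C.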

[4] = tested on: Y570 ABC efflux pump CaCDR1B overexpressed; test: Agarose (disk) diffusion assay, strain Y570; assay type: cell-based, S. cerevisiae; settings: 10 nmol/disk, 30 °C, 48 h
Excerpt: as §3, §4

CaCYP51 Y132F = CaCYP51 Y132F (Candida albicans, UniProt P10613, Y132F); test: Reconstituted CYP51 activity assay, Y132F; assay type: biochemical, C. albicans; settings: 1 μM CaCyp51, 50 μM lanosterol; duplicate, mean ± SD
CaCYP51 Y132F, sequence (P10613 whole entry Y132F): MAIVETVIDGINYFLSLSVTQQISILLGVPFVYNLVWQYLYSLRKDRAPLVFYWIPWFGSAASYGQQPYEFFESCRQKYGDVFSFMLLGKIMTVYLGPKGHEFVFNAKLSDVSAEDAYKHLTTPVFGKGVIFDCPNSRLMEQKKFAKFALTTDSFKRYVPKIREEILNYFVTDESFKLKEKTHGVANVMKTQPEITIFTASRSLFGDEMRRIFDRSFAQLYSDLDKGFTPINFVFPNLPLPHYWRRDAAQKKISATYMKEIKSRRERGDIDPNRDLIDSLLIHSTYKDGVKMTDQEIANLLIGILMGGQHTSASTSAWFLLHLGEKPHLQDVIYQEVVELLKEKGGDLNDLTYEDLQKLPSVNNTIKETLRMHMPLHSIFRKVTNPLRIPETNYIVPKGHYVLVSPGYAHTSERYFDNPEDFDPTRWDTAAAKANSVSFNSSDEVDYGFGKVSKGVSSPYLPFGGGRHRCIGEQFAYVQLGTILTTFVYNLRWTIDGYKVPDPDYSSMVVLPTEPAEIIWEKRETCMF
Method: (§5) The reconstituted CYP51 assay previously described contained 1 μM CaCyp51, 2 μM Homo sapiens cytochrome P450 reductase and 50 μM lanosterol in a final volume of 500 μL. After the addition of azole in DMSO (2.5 μL), reactions were incubated at 37 °C for 10 min prior to initiation by the addition of 100 μL 20 mM β-NADPH-Na4. Sterol substrates and products were extracted with ethyl acetate, derivatized with N,O-bis(trimethylsilyl)-trifluoroacetamide (BSTFA)–trimethylchlorosilane (TMCS) (99:1) in the presence of anhydrous pyridine, and analyzed by GC/MS as described previously. IC50 determinations were performed in duplicate. Nonlinear regression of inhibitor concentration vs normalized response was calculated by GraphPad Prism 10.4.0 for Windows (GraphPad Software, Boston, Massachusetts, USA, www.graphpad.com).

CaCYP51 Y132H + K143R = CaCYP51 Y132H + K143R (Candida albicans, UniProt P10613, K143R/Y132H); test: Reconstituted CYP51 activity assay, Y132H + K143R; assay type: biochemical, C. albicans; settings: 1 μM CaCyp51, 50 μM lanosterol; duplicate, mean ± SD
CaCYP51 Y132H + K143R, sequence (P10613 whole entry Y132H/K143R): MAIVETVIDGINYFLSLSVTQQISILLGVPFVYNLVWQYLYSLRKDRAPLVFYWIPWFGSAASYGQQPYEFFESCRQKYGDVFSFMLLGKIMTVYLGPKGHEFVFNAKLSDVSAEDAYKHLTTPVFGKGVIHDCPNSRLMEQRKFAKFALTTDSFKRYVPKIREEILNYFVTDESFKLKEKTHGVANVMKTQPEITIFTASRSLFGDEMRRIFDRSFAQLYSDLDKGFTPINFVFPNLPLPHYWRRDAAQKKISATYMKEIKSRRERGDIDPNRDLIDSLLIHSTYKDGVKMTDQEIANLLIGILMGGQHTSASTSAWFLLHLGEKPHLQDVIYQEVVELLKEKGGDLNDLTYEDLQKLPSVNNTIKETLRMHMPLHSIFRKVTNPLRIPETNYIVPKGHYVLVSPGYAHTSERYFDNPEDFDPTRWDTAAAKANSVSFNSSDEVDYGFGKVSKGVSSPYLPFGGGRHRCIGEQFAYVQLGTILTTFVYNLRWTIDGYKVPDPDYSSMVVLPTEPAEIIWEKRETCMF
Method: as §5

CYP2C19 = CYP2C19 (Homo sapiens, UniProt P33261); test: CYP IC50 profile, CYP2C19; assay type: biochemical; settings: human liver drug metabolizing enzyme; read-out: CYP IC50 2C19
CYP2C19, sequence (P33261 whole entry): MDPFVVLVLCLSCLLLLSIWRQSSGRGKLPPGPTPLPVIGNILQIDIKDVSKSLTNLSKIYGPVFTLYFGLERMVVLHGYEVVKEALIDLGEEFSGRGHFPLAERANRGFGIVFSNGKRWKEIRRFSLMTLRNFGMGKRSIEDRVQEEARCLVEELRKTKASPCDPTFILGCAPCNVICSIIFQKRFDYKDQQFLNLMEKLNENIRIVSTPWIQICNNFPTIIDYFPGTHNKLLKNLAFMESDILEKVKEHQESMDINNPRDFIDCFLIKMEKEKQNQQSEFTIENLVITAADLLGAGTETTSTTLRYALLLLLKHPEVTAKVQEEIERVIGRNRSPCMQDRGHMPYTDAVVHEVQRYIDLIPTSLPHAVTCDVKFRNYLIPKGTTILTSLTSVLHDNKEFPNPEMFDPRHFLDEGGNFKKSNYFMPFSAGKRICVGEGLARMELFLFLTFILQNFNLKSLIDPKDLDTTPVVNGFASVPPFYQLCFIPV

CYP2D6 = CYP2D6 (Homo sapiens, UniProt P10635); test: biochemical; settings: human liver drug metabolizing enzyme; read-out: CYP IC50 2D6
CYP2D6, sequence (P10635 whole entry): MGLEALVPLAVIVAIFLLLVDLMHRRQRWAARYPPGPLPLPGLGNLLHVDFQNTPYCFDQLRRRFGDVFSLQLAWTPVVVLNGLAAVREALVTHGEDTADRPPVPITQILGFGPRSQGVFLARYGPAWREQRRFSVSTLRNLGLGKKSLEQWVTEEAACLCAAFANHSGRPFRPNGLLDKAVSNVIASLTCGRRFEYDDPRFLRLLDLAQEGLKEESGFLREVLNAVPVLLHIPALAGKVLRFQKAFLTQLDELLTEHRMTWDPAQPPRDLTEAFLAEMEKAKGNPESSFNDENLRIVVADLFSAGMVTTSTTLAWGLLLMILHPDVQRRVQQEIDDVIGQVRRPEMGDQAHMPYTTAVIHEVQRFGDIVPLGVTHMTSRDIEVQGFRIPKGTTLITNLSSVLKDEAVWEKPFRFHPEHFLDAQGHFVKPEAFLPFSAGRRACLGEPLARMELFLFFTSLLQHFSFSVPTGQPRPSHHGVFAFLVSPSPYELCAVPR

CYP3A4 = CYP3A4 (Homo sapiens, UniProt P08684); test: CYP IC50 profile, CYP3A4; assay type: biochemical; settings: human liver drug metabolizing enzyme; read-out: CYP IC50 3A4
CYP3A4, sequence (P08684 whole entry): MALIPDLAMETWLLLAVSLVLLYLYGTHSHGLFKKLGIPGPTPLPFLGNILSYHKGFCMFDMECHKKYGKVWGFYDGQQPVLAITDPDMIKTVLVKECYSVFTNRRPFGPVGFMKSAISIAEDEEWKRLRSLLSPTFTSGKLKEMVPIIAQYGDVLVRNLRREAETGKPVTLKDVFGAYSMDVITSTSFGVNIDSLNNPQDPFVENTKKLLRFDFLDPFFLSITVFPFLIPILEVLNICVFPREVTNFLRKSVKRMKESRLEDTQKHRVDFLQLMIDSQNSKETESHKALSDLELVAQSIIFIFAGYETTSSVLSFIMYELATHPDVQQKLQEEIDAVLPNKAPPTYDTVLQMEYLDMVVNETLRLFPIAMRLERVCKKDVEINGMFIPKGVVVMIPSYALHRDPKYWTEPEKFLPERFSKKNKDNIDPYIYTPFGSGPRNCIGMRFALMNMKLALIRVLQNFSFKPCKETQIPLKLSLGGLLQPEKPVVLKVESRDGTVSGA

[5] = Saccharomyces cerevisiae, 48 h, pH 6.8

## O=C(NCC(O)(Cn1cncn1)c1ccc(F)cc1F)c1ccc(-c2ccc(OC(F)(F)F)cc2)cc1 (stereo not drawn) [Compound 22, N-(2-(2,4-Difluorophenyl)-2-hydroxy-3-(1H-1,2,4-triazol-1-yl)propyl)-4’-(trifluoromethoxy)-[1,1’-biphenyl]-4-carboxamide]
Y2411 Endog. ScCYP51; strain Y2411 Endog. ScCYP51, SD pH 6.8, 30 °C, 48 h
  MIC80: 0.03 ± 0.023 µM
Y2411 Endog. ScCYP51; supplement csv, read-out: MIC (nM) S. cerevisiae Y2411
  MIC: 30 ± 23 nM
Y2300 OE ScCYP51; 48 h, pH 6.8
  MIC80: 0.114 ± 0.014 µM
Y2300 OE ScCYP51; read-out: MIC (nM) S. cerevisiae Y2300
  MIC: 114 ± 14 nM
Y2301 OE ScCYP51 Y140F; 48 h, pH 6.8
  MIC80: 0.093 ± 0.046 µM
Y2301 OE ScCYP51 Y140F; read-out: MIC (nM) S. cerevisiae Y2301
  MIC: 93 ± 46 nM
Y2513 OE ScCYP51 Y140H; 48 h, pH 6.8
  MIC80: 0.078 ± 0.056 µM
Y2513 OE ScCYP51 Y140H; read-out: MIC (nM) S. cerevisiae Y2513
  MIC: 78 ± 56 nM
Y2459 OE CaCYP51 CaCpr; [5]
  MIC80: 0.054 ± 0.022 µM
Y2459 OE CaCYP51 CaCpr; read-out: MIC (nM) C. albicans model Y2459
  MIC: 54 ± 22 nM
Y525 OE CaMDR1a; [5]
  MIC80: 0.451 µM
Y525 OE CaMDR1a; read-out: MIC (nM) C. albicans model Y525
  MIC: 451 nM
Y71 SC5314; SC5314, supplement csv
  MIC: 40 nM
Y71 SC5314; C. albicans clinical isolate Y71 SC5314, pH 7, 24 h
  MIC80: 0.04 µM
Y611 FHB3
  MIC80: 1.65 µM
Y2374 OE CgCYP51
  MIC80: 0.101 µM
Y2374 OE CgCYP51; read-out: MIC (nM) C. glabrate model Y2374
  MIC: 101 nM
Y2767 OE CauCYP51; Candidozyma auris, read-out: MIC (nM) C. auris model Y2767
  MIC: 110 ± 10 nM
Y2767 OE CauCYP51; Saccharomyces cerevisiae
  MIC80: 0.11 ± 0.01 µM
Y2768 OE CauCYP51 Y132F; Candidozyma auris, read-out: MIC (nM) C. auris model Y2768
  MIC: 241 ± 38 nM
Y2768 OE CauCYP51 Y132F; Saccharomyces cerevisiae
  MIC80: 0.241 ± 0.038 µM
Y2765 OE CauMDR1
  MIC80: 0.059 ± 0.014 µM
Y2649 OE CYP51 F1 RaCPR; Rhizopus arrhizus, read-out: MIC (nM) R. arrhizus model Y2649
  MIC: 470 ± 240 nM
Y2649 OE CYP51 F1 RaCPR; Saccharomyces cerevisiae
  MIC80: 0.47 ± 0.24 µM
[1]
  MIC80: 12.4 µM
[2]
  zone of growth inhibition (inhibitory activity in words): visible reduction in potency
[3]
  zone of growth inhibition (inhibitory activity in words): no effect on its potency
[4]
  zone of growth inhibition (inhibitory activity in words): conferred resistance
CaCYP51 Y132F
  IC50: 1.24 ± 0.0379 µM
CaCYP51 Y132H + K143R
  IC50: 8.49 ± 1.27 µM
CYP2C19
  IC50: 14.5 ± 2.23 µM
CYP2D6
  IC50: > 25 µM
CYP3A4
  IC50: 1.62 ± 0.23 µM
